The record followed here is patent US9969726B2, “Metabotropic glutamate receptor negative allosteric modulators (NAMS) and uses thereof” (Sanford-Burnham Medical Research Institute, priority 2014, dated 2018).

Read-outs that look alike come from different tables or passages of the source.

In one experiment the target is rat mGlu3 receptor (Rattus norvegicus (Rat), UniProt P31422). As to the kind of experiment: mGlu3 in vitro GIRK thallium flux assay. The format is cell-based. Particulars: NAM; 2.5 min compound incubation; EC80 glutamate; HEK-293 GIRK cells. On the procedure: (§1) All cell culture reagents were purchased from Invitrogen Corp. (Carlsbad, Calif.) unless otherwise noted. Compound activity at the group II (mGlu2 and mGlu3) mGlus was assessed using thallium flux through GIRK channels. Briefly, cells were plated into 384-well, black-walled, clear-bottomed poly-D-lysine-coated plates at a density of 15,000 cells/20 μL/well in DMEM containing 10% dialyzed FBS, 20 mM HEPES, and 100 units/mL penicillin/streptomycin (assay media). Plated cells were incubated overnight at 37° C. in the presence of 5% CO2. […] Cells were incubated for 1 h at room temperature, and the dye exchanged to assay buffer using an ELX405, leaving 20 μL/well. Test compounds were diluted to 2 times their final desired concentration in assay buffer (0.3% DMSO final concentration). […] Cell plates and compound plates were loaded onto a kinetic imaging plate reader (FDSS 6000 or 7000; Hamamatsu Corporation, Bridgewater, N.J.). Appropriate baseline readings were taken (10 images at 1 Hz; excitation, 470±20 nm; emission, 540±30 nm) and test compounds were added in a 20 μL volume and incubated for either 2.5 min or 60 min as indicated before the addition of 10 μL of thallium buffer with or without agonist. After the addition of agonist, data were collected for approximately an additional 2.5 min. Data were analyzed using Excel (Microsoft Corp, Redmond, Wash.). The slope of the fluorescence increase beginning 5 s after thallium/agonist addition and ending 15 s after thallium/agonist addition was calculated, corrected to vehicle and maximal agonist control slope values, and plotted in using either XLfit (ID Business Solutions Ltd) or Prism software (GraphPad Software, San Diego, Calif.) to generate concentration-response curves. Potencies were calculated from fits using a four-point parameter logistic equation. For concentration-response curve experiments, compounds were serially diluted 1:3 into 10 point concentration response curves and were transferred to daughter plates using an Echo acoustic plate reformatter (Labcyte, Sunnyvale, Calif.). Test compounds were applied and followed by EC80 concentrations of glutamate.

The target of a further experiment is rat mGlu2 receptor (Rattus norvegicus (Rat), UniProt P31421). Briefly: mGlu2 in vitro GIRK thallium flux assay. Type of experiment: cell-based. Particulars: NAM, EC80 glutamate, HEK-293 GIRK cells. On the procedure:
as §1

Setting [1] is: 2.5 min compound incubation, read-out: mGlu2 EC50 (μM) (2.5 min).
The mark [2] stands for this setting: read-out: mGlu2 EC50 (μM) (60 min), 60 min compound incubation.
Setting [3] is: mGlu2 EC50 (μM) (60 min), 60 min compound incubation.

Sequence of rat mGlu3 receptor (P31422 23-879): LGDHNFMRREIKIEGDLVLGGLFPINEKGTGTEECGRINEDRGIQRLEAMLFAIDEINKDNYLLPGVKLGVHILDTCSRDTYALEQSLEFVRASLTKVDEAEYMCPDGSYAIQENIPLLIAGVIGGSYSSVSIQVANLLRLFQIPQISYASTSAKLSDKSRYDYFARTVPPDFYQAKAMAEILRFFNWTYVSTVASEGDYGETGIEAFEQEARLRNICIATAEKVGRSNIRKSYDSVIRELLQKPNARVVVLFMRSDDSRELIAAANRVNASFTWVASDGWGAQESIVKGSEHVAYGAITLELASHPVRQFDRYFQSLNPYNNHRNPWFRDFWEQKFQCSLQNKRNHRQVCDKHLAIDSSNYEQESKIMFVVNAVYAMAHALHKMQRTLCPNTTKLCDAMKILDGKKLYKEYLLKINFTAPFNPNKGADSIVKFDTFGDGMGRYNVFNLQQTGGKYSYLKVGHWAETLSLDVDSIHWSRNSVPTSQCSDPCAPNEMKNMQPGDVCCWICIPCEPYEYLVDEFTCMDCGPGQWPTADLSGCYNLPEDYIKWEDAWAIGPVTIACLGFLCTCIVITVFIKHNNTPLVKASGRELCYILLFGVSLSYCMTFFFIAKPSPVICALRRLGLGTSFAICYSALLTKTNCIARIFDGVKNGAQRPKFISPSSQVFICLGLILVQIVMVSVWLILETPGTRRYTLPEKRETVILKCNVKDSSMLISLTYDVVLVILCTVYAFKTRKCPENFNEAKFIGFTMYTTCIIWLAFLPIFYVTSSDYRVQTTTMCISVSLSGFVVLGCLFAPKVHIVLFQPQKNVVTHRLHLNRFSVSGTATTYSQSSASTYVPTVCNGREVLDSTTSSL
Sequence of rat mGlu2 receptor (P31421 19-872): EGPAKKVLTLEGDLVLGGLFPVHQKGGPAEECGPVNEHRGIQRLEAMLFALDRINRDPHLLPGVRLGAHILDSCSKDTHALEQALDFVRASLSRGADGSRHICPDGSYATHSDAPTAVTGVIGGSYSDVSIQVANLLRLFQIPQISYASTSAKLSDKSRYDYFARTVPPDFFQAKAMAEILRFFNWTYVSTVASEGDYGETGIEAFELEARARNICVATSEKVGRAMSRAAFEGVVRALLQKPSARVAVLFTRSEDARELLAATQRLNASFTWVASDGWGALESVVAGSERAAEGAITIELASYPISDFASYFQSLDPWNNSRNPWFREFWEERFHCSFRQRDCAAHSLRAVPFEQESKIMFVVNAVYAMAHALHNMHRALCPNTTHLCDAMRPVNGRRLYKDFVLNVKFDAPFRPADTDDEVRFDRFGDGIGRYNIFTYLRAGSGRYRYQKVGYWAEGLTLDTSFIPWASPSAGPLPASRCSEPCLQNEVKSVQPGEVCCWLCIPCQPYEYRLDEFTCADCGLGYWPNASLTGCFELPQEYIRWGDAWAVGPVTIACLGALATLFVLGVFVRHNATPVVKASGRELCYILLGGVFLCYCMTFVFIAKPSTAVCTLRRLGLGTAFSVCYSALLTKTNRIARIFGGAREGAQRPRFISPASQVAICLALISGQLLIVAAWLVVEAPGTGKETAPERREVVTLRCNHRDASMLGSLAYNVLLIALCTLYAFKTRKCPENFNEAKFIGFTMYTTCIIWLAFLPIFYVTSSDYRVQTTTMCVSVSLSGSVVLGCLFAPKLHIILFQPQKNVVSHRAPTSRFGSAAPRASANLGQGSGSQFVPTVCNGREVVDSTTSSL

Turning to `CNC(=O)c1cc(-c2cccc(-c3nc(-c4ccc(C(F)(F)F)nc4)cc(C(F)(F)F)n3)c2)ccc1Cl` [Example 85, 4-Chloro-N-methyl-3′-(4-(trifluoromethyl)-6-(6-(trifluoromethyl)pyridin-3-yl)pyrimidin-2-yl)biphenyl-3-carboxamide], the EC50 – broadly, the concentration giving half of the maximal effect – at rat mGlu3 receptor was more than 30 µM; at rat mGlu2 receptor (setting [1]), more than 30 µM; at rat mGlu2 receptor (setting [2]), more than 10 µM.
Consider `COc1ccc(-c2cccc(-c3nc(-c4ccco4)cc(C(F)(F)F)n3)c2)cc1C(=O)O` [Example 90, 3′-(4-(Furan-2-yl)-6-(trifluoromethyl)pyrimidin-2-yl)-4-methoxybiphenyl-3-carboxylic Acid], for which the EC50 at rat mGlu3 receptor was more than 10 µM; on rat mGlu2 receptor (setting [1]), 3.68 µM; at rat mGlu2 receptor (setting [2]) it was 2.49 µM.
Regarding `Cc1cc2c(cc1C(F)(F)F)NC(=O)CC(c1cccc(Oc3ccccn3)c1)=N2` [Example 150, 7-Methyl-4-(3-(pyridin-2-yloxy)phenyl)-8-(trifluoromethyl)-1H-benzo[b][1,4]diazepin-2(3H)-one], the EC50 was 1.52 µM at rat mGlu3 receptor and 2.79 µM on rat mGlu2 receptor (setting [1]).
Take `c1ccc(-c2nc(-c3cccc(-c4cccc(-c5nn[nH]n5)c4)c3)cs2)cc1` [Example 37, 4-(3′-(2H-Tetrazol-5-yl)biphenyl-3-yl)-2-phenylthiazole]: the figures for the EC50 on rat mGlu3 receptor, on rat mGlu2 receptor (setting [1]) and on rat mGlu2 receptor (setting [2]) were more than 10 µM, 2.98 µM and 1.72 µM, respectively.
As to `O=C(O)c1ccc(-c2cccc(-c3csc(-c4ccccc4)n3)c2)c(Cl)c1` [Example 26, 2-Chloro-3′-(2-phenylthiazol-4-yl)biphenyl-4-carboxylic Acid], the values for the EC50 at rat mGlu3 receptor, at rat mGlu2 receptor (setting [1]) and at rat mGlu2 receptor (setting [3]) were more than 10 µM, more than 30 µM and more than 30 µM, respectively.
As for `NS(=O)(=O)c1cccc(-c2cccc(-c3csc(-c4ccccc4)n3)c2)c1` [Example 2, 3′-(2-Phenylthiazol-4-yl)biphenyl-3-sulfonamide], the EC50 on rat mGlu3 receptor is more than 30 µM; at rat mGlu2 receptor (setting [1]), more than 30 µM; at rat mGlu2 receptor (setting [3]) it was more than 10 µM.
Take `COc1ccc(-n2nc(-c3cccc(-c4cccc(C(=O)O)c4)c3)nc2-c2ccccc2)cc1` [Example 55, 3′-(1-(4-Methoxyphenyl)-5-phenyl-1H-1,2,4-triazol-3-yl)-[1,1′-biphenyl]-3-carboxylic Acid]: the EC50 on rat mGlu3 receptor is 2.96 µM; on rat mGlu2 receptor (setting [1]), more than 10 µM; on rat mGlu2 receptor (setting [3]), 6.58 µM.
Taken in the same sequence, the figures for `O=C(O)c1cc(-c2cccc(-c3csc(-c4cc5ccccc5s4)n3)c2)ccc1F` [Example 8, 3′-(2-(Benzo[b]thiophen-2-yl)thiazol-4-yl)-4-fluorobiphenyl-3-carboxylic Acid] were more than 10 µM, more than 10 µM and 1.92 µM.
Taken in the same sequence, the figures for `O=C(O)c1ccc(-c2cccc(-c3nc(-c4ccccc4)n(-c4ccccc4)n3)c2)cc1` [Example 60, 3′-(1,5-Diphenyl-1H-1,2,4-triazol-3-yl)-[1,1′-biphenyl]-4-carboxylic Acid] were 5.3 µM, more than 10 µM and more than 10 µM.
As to `Cc1cc(C)cc(-c2cc(C(F)(F)F)nc(-c3cccc(-c4ccc(F)c(C(=O)O)c4)c3)n2)c1` [Example 93, 3′-(4-(3,5-Dimethylphenyl)-6-(trifluoromethyl)pyrimidin-2-yl)-4-fluorobiphenyl-3-carboxylic Acid], the results for the EC50 on rat mGlu3 receptor, at rat mGlu2 receptor (setting [1]) and at rat mGlu2 receptor (setting [2]) were more than 10 µM, more than 10 µM and 1.6 µM, respectively.
As to `O=C(O)c1cc(F)cc(-c2cccc(-c3nsc(-c4ccccc4)n3)c2)c1` [Example 40, 5-Fluoro-3′-(5-phenyl-1,2,4-thiadiazol-3-yl)biphenyl-3-carboxylic Acid], the figures for the EC50 on rat mGlu3 receptor, on rat mGlu2 receptor (setting [1]) and on rat mGlu2 receptor (setting [3]) were 2.78 µM, 0.4 µM and 0.1 µM, respectively.
As for `Cc1cc2c(cc1C(F)(F)F)NC(=O)CC(c1cccc(C#CCO)c1)=N2` [Example 203, 4-[3-(3-Hydroxy-prop-1-ynyl)-phenyl]-7-methyl-8-trifluoromethyl-1,3-dihydro-benzo[b][1,4]diazepin-2-one], the 50% effective concentration (EC50) worked out at 0.39 µM on rat mGlu3 receptor, 0.65 µM on rat mGlu2 receptor (setting [1]) and 0.02 µM at rat mGlu2 receptor (setting [2]).
For `O=C(O)c1cc(F)cc(-c2ccc(-c3nc(-c4ccc(C(F)(F)F)nc4)cc(C(F)(F)F)n3)cc2)c1` [Example 84, 5-Fluoro-4′-(4-(trifluoromethyl)-6-(6-(trifluoromethyl)pyridin-3-yl)pyrimidin-2-yl)biphenyl-3-carboxylic Acid], the results for the EC50 at rat mGlu3 receptor and at rat mGlu2 receptor (setting [1]) were 4.91 µM and 2.79 µM, respectively.
For the molecule `O=C(O)c1cc(-c2cccc(-c3nc(-c4cccs4)cc(C(F)(F)F)n3)c2)ccc1F` [Example 87A, 4-Fluoro-3′-(4-(thiophen-2-yl)-6-(trifluoromethyl)pyrimidin-2-yl)biphenyl-3-carboxylic Acid], the EC50 came out at 1.26 µM at rat mGlu3 receptor, 1.12 µM at rat mGlu2 receptor (setting [1]) and 0.24 µM on rat mGlu2 receptor (setting [2]).
The corresponding values for `O=C(O)c1cc(-c2ccc(-c3csc(-c4ccccc4)n3)cc2)ccc1F` [Example 17, 4-Fluoro-4′-(2-phenylthiazol-4-yl)biphenyl-3-carboxylic Acid] are more than 30 µM, more than 30 µM and more than 30 µM.
Consider `Cn1nc(-c2cccc(-c3cccc(C(=O)O)c3)c2)nc1-c1ccccc1` [Example 50, 3′-(1-Methyl-5-phenyl-1H-1,2,4-triazol-3-yl)-[1,1′-biphenyl]-3-carboxylic Acid], for which the figures for the EC50 on rat mGlu3 receptor, on rat mGlu2 receptor (setting [1]) and on rat mGlu2 receptor (setting [3]) were more than 10 µM, 0.59 µM and 1.48 µM, respectively.
As to `N#Cc1cc(C2=Nc3ccc(I)cc3NC(=O)C2)ccn1` [Example 183, 4-(8-Iodo-2-oxo-2,3-dihydro-1H-benzo[b][1,4]diazepin-4-yl)picolinonitrile], the figures for the EC50 on rat mGlu3 receptor, at rat mGlu2 receptor (setting [1]) and at rat mGlu2 receptor (setting [2]) were 0.07 µM, 0.11 µM and 0.03 µM, respectively.
Taken in the same sequence, the figures for `Cc1noc(C)c1-c1cc(C(F)(F)F)nc(-c2cccc(-c3ccc(F)c(C(=O)O)c3)c2)n1` [Example 111, 3′-(4-(3,5-Dimethylisoxazol-4-yl)-6-(trifluoromethyl)pyrimidin-2-yl)-4-fluorobiphenyl-3-carboxylic Acid] were more than 10 µM, more than 10 µM and more than 10 µM.
In the case of `Cc1cc(-c2cccc(C3CC(=O)Nc4cc(NC(=O)OCc5ccccc5)ccc4N3)c2)cc(C)n1` (racemic) [Example 162, Benzyl (2-(3-(2,6-dimethylpyridin-4-yl)phenyl)-4-oxo-2,3,4,5-tetrahydro-1H-benzo[b][1,4]diazepin-7-yl)carbamate], the EC50 is more than 10 µM at rat mGlu3 receptor, more than 10 µM at rat mGlu2 receptor (setting [1]) and 5.36 µM on rat mGlu2 receptor (setting [3]).
As to `COc1ccc(-c2cc(C(F)(F)F)nc(-c3cccc(-c4ccc(F)c(C(=O)O)c4)c3)n2)cc1OC` [Example 99, 3′-(4-(3,4-Dimethoxyphenyl)-6-(trifluoromethyl)pyrimidin-2-yl)-4-fluorobiphenyl-3-carboxylic Acid], the EC50 at rat mGlu3 receptor was 2.83 µM; at rat mGlu2 receptor (setting [1]), more than 10 µM; on rat mGlu2 receptor (setting [2]), 1.3 µM.
Regarding `O=C(O)c1cc(-c2cccc(-c3nc(-c4ccc(C(F)(F)F)nc4)cc(C(F)(F)F)n3)c2)ccc1Cl` [Example 70, 4-Chloro-3′-(4-(trifluoromethyl)-6-(6-(trifluoromethyl)pyridin-3-yl)pyrimidin-2-yl)biphenyl-3-carboxylic Acid], the EC50 was 1.58 µM on rat mGlu3 receptor, 1.26 µM at rat mGlu2 receptor (setting [1]) and 0.2 µM on rat mGlu2 receptor (setting [2]).
